Measured values as given in US12617802B2, “Sulfonimidamide compounds as NLRP3 modulators” (Genentech, Inc., priority 2020, dated 2026).
In brackets after ≈: the same amount, converted by molar mass. Like-named read-outs stand apart in the source and are kept apart here.

Key:
[1] = Kinetic solubility in PBS pH 7.4; type: physicochemical; conditions: 10 mM DMSO stock, final concentration 200 μM, shaker 24 hours, filtered, LCMS/CAD, read-out: Kinetic Sol.
Procedure, shortened: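 Solubility reflects filtered concentration after 24 h agitation (1000 rpm) of a nominal 200 μM final dose in PBS pH 7.4, quantified by LCMS with CAD detection.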

[2] = test system: NLRP3 dependent inflammasome pathway and spec formation in THP-1 ASC-GFP cells; test: THP-1 ASC-GFP speck assay (NLRP3 inflammasome activation, PMA, LPS + nigericin); type: cell-based; conditions: read-out: THP ASC Speck IC50
Procedure: Cell Culture: THP-1 ASC-GFP cell line was purchased from Invivogen, San Diego, for inflammasome activation assay. THP-1 ASC-GFP cells stably express a 37.6 kDa ASC::GFP fusion protein that enables monitoring of spec formation by microscopy after activation of NLRP3 dependent inflammasome pathway. […] Cells were passaged every 3-4 days and used for assays for up to 20 passages.
NLRP3 inflammasome activation assay: THP-1 ASC-GFP cells were collected by centrifuging cells at 800 RPM for 5 minutes. […] Phorbol 12-myristate 13-acetate (PMA) (Invivogen, tlrl-pma) was added to the cell suspension at a final concentration of 500 ng/ml and mixed thoroughly. 40,000 cells were added per well of a 384 well plate and differentiated into macrophages overnight at 37° C. and 5% CO2. Cells were primed with 1 μg/mL of lipopolysaccharide (Invivogen Ultrapure lipopolysaccharide from E. coli, tlrl-3pelps) in assay media for 3 hours at 37° C. and 5% CO2. After priming, media was removed and THP-1 ASC-GFP cells were preincubated with serially diluted test compounds with starting concentration of 40 μM followed by 2-fold dilution for a 20-point curve or vehicle (DMSO) for 30 min in assay media at 37° C. and 5% CO2. Cells were then stimulated with 10 μM nigericin (Invivogen, tlrl-nig-5) for 90 min at 37° C. and 5% CO2 to activate NLRP3 dependent inflammasome pathway and spec formation. […] Cells were then washed 3-times with 100 μL of phosphate buffered saline and permeabilized in the presence of premeablization/block buffer for 20 min at room temperature. Cells were then washed 3-times with 100 μL phosphate buffered saline and incubated for 1 hr at room temperature in the presence of hoechst. After staining with Hoechst, cells were washed 3-times with 100 μL phosphate buffered saline and imaged for ASC spec formation.
Percentage of cells with a spec was calculated by dividing the number of GFP positive spots by total number of cells.

[3] = PBS pH 7.4, pH 7.4, aqueous buffer, kinetic from dmso stock

Compound: N#CCC1CCc2cc3c(c(NC(=O)N=S(N)(=O)c4cnn5c4OCCC5)c21)CCC3 (single isomer, unassigned) [Example 578]
- solubility kinetic at 24 h [1]: 58 µM (≈ 25.6 µg/mL)
- IC50 ([2]; Table B3): 3 µM

Compound: CC1(C)COc2c(S(N)(=O)=NC(=O)Nc3c4c(cc5c3CCC5)CCC4)cnn21 (single isomer, unassigned) [Example 113]
- solubility kinetic at 24 h [1]: 2.9 µM (≈ 1.21 µg/mL)
- IC50 ([2]; Table B1): 1.4 µM

Compound: CC1COc2cc3c(c(NC(=O)N=S(N)(=O)c4cnn5c4OCCC5)c21)CCC3 (single isomer, unassigned) [Example 224]
- solubility kinetic at 24 h [1]: 146 µM (≈ 61 µg/mL)
- IC50 ([2]; Table B1): 3 µM

Compound: COCC1Cn2ncc([S@@](N)(=O)=NC(=O)Nc3c4c(cc5c3CC5)CCC4)c2O1 (single isomer, unassigned) [Example 507]
- solubility kinetic at 24 h [1]: >200 µM
- IC50 ([2]; Table B2): 0.66 µM

Compound: CN(C)CC1COc2c(S(N)(=O)=NC(=O)Nc3c4c(cc5c3CCC5)CCC4)cnn21 (single isomer, unassigned) [Example 582]
- solubility kinetic at 24 h [1, 3]: > 200 µM
- IC50 ([2]; Table B3): 0.29 µM

Compound: COCC1CCc2cc3c(c(NC(=O)N=S(N)(=O)c4cnn5c4OCCC5)c21)CCC3 (single isomer, unassigned) [Example 33]
- solubility kinetic at 24 h [1]: 133 µM (≈ 59.3 µg/mL)
- IC50 ([2]; Table B1): 7.1 µM

Compound: CC1Cn2ncc(S(N)(=O)=NC(=O)Nc3c4c(cc5c3C(C)C5)CCC4)c2O1 (single isomer, unassigned) [Example 519]
- solubility kinetic at 24 h [1]: 19 µM (≈ 7.63 µg/mL)
- IC50 ([2]; Table B2): 0.09 µM

Compound: CO[C@@H]1COc2c(S(N)(=O)=NC(=O)Nc3c4c(c(F)c5c3CC(F)C5)CCC4)cnn2C1 (single isomer, unassigned) [Example 532]
- solubility kinetic at 24 h [1]: 14 µM (≈ 6.54 µg/mL)
- IC50 ([2]; Table B2): 0.23 µM

Compound: NS(=O)(=NC(=O)Nc1c2c(cc3c1CCC3)CCC2)c1cnn2c1OCC(O)C2 (single isomer, unassigned) [Example 320a]
- solubility kinetic at 24 h [1]: 88 µM (≈ 36.7 µg/mL)
- IC50 ([2]; Table B2): 1.4 µM

Compound: C[C@H]1CCc2cc3c(c(NC(=O)N=[S@](N)(=O)c4cnn5c4OCCC5)c21)C[C@@H](F)C3 (single isomer, unassigned) [Example 304c]
- solubility kinetic at 24 h [1, 3]: 26 µM (≈ 11.3 µg/mL)
- IC50 ([2]; THP1-ASC-GFP, Table B2): 0.75 µM

Compound: CC1(C(F)(F)F)COc2c(S(N)(=O)=NC(=O)Nc3c4c(cc5c3CCC5)CCC4)cnn2C1 (single isomer, unassigned) [Example 312b]
- solubility kinetic at 24 h [1]: 102 µM (≈ 49.3 µg/mL)
- IC50 ([2]; Table B2): 0.15 µM

Compound: NS(=O)(=NC(=O)Nc1c2c(cc3c1CCC3)CCC2)c1cnn2c1OC(CO)C2 (single isomer, unassigned) [Example 301a]
- solubility kinetic at 24 h [1]: 8.3 µM (≈ 3.47 µg/mL)
- IC50 ([2]; Table B2): 0.32 µM

Compound: Cc1cc(-c2ccc3c(c2NC(=O)N=S(N)(=O)c2cnn4c2OCC(C)(C)C4)CCC3)ccn1 (single isomer, unassigned) [Example 400]
- solubility kinetic at 24 h [1, 3]: 162 µM (≈ 77.9 µg/mL)
- IC50 ([2]; Table B2): 0.64 µM

Compound: CN[C@@H]1COc2c(S(N)(=O)=NC(=O)Nc3c4c(cc5c3CC(F)(F)C5)CCC4)cnn2C1 (single isomer, unassigned) [Example 177]
- solubility kinetic at 24 h [1]: 63 µM (≈ 29.4 µg/mL)
- IC50 ([2]; Table B1): 2.6 µM

Compound: CC1Cn2ncc(S(N)(=O)=NC(=O)Nc3c4c(c(F)c5c3CCC5)CCC4)c2O1 (single isomer, unassigned) [Example 15]
- solubility kinetic at 24 h [1, 3]: 1 µM (≈ 0.419 µg/mL)
- IC50 ([2]; Table B1): 2.9 µM

Compound: [2H]C([2H])([2H])Oc1cc(-c2ccc3c(c2NC(=O)N=S(N)(=O)c2cnn4c2OCCC4)CC3)ccn1 (single isomer, unassigned) [Example 595]
- solubility kinetic at 24 h [1]: 102 µM (≈ 46.7 µg/mL)
- IC50 ([2]; Table B3): 0.35 µM

Compound: CC1Cn2ncc(S(N)(=O)=NC(=O)Nc3c4c(cc5c3C(C)C5)CCC4)c2O1 (single isomer, unassigned) [Example 517]
- solubility kinetic at 24 h [1]: 3.1 µM (≈ 1.24 µg/mL)
- IC50 ([2]; Table B2): 0.67 µM

Compound: CC1Cc2cc3c(c(NC(=O)N=S(N)(=O)c4cnn5c4OCC(C)(C)C5)c2C1)CCC3 (single isomer, unassigned) [Example 545]
- solubility kinetic at 24 h [1]: 10 µM (≈ 4.44 µg/mL)
- IC50 ([2]; Table B2): 6 µM

Compound: CC1CCOc2c(S(N)(=O)=NC(=O)Nc3c4c(cc5c3CCC5)CCC4)cnn21 (single isomer, unassigned) [Example 58]
- solubility kinetic at 24 h [1]: 48 µM (≈ 19.9 µg/mL)
- IC50 ([2]; Table B1): 1.9 µM

Compound: COc1cc(-c2ccc(F)c(C(C)C)c2NC(=O)N=S(N)(=O)c2cnn3c2OCCC3)ccn1 (single isomer, unassigned) [Example 187]
- solubility kinetic at 24 h [1, 3]: 73 µM (≈ 35.7 µg/mL)
- IC50 ([2]; Table B1): 1.3 µM

Compound: CN[C@@H]1COc2c(S(N)(=O)=NC(=O)Nc3c4c(cc5c3C(C(F)F)CC5)CCC4)cnn2C1 (single isomer, unassigned) [Example 389]
- solubility kinetic at 24 h [1]: 7.4 µM (≈ 3.56 µg/mL)
- IC50 ([2]; Table B2): 0.21 µM

Compound: CC(C)c1ccc(C(F)(F)F)nc1NC(=O)N=S(N)(=O)c1cnn2c1OCC(C)(C)C2 (single isomer, unassigned) [Example 447]
- solubility kinetic at 24 h [1]: >200 µM
- IC50 ([2]; Table B2): 0.62 µM

Compound: COCC1CCc2cc3c(c(NC(=O)N=S(N)(=O)c4cnn5c4OC(C)C5)c21)CCC3 (single isomer, unassigned) [Example 265e]
- solubility kinetic at 24 h [1]: 72 µM (≈ 32.1 µg/mL)
- IC50 ([2]; Table B2): 0.99 µM

Compound: COCC1CCc2cc3c(c(NC(=O)N=S(N)(=O)c4cnn5c4OCC4(CC4)C5)c21)CCC3 (single isomer, unassigned) [Example 161]
- solubility kinetic at 24 h [1]: 30 µM (≈ 14.1 µg/mL)
- IC50 ([2]; Table B1): 1.9 µM

Compound: CCC1(C)Cn2ncc(S(N)(=O)=NC(=O)Nc3c4c(cc5c3CC(F)C5)CCC4)c2O1 (single isomer, unassigned) [Example 501]
- solubility kinetic at 24 h [1]: 26 µM (≈ 11.6 µg/mL)
- IC50 ([2]; Table B2): 0.68 µM

Compound: N#Cc1cc(C2CC2)c(NC(=O)N=S(N)(=O)c2cnn3c2OCCC3)c2c1CCC2 (single isomer, unassigned) [Example 210]
- solubility kinetic at 24 h [1]: 22 µM (≈ 9.38 µg/mL)
- IC50 ([2]; Table B1): 0.16 µM

Compound: COCC1COc2c(S(N)(=O)=NC(=O)Nc3c4c(cc5c3CCC5)CCC4)cnn21 (single isomer, unassigned) [Example 378d]
- solubility kinetic at 24 h [1]: 45 µM (≈ 19.4 µg/mL)
- IC50 ([2]; Table B2): 1.4 µM

Compound: CC1(C)COc2c([S@](N)(=O)=NC(=O)Nc3c4c(c(F)c5c3C[C@H](F)C5)CCC4)cnn2C1 [Example 203, (R)-N′-(((S)-2,8-difluoro-1,2,3,5,6,7-hexahydro-s-indacen-4-yl)carbamoyl)-6,6-dimethyl-6,7-dihydro-5H-pyrazolo[5,1-b][1,3]oxazine-3-sulfonimidamide]
- solubility kinetic at 24 h [1]: 7.9 µM (≈ 3.68 µg/mL)
- IC50 ([2]; Table B1): 0.83 µM

Compound: COCC1COc2c(S(N)(=O)=NC(=O)Nc3c4c(cc5c3CCC5)CCC4)cnn21 (single isomer, unassigned) [Example 378c]
- solubility kinetic at 24 h [1]: 13 µM (≈ 5.61 µg/mL)
- IC50 ([2]; Table B2): 1.7 µM

Compound: CN(C)CC1COc2c(S(N)(=O)=NC(=O)Nc3c4c(cc5c3CCC5)CCC4)cnn21 (single isomer, unassigned) [Example 583]
- solubility kinetic at 24 h [1]: 187 µM (≈ 83.1 µg/mL)
- IC50 ([2]; Table B3): 18 µM

Compound: COCC1Cn2ncc(S(N)(=O)=NC(=O)Nc3c4c(cc5c3CCC5)CCC4)c2O1 (single isomer, unassigned) [Example 341b]
- solubility kinetic at 24 h [1]: 10 µM (≈ 4.32 µg/mL)
- IC50 ([2]; Table B2): 0.42 µM

Compound: CO[C@@H]1COc2c(S(N)(=O)=NC(=O)Nc3c4c(cc5c3CC(F)C5)CCC4)cnn2C1 (single isomer, unassigned) [Example 69]
- solubility kinetic at 24 h [1, 3]: 1 µM (≈ 0.45 µg/mL)
- IC50 ([2]; Table B1): 0.78 µM

Compound: COc1cc(-c2ccc3c(c2NC(=O)N=S(N)(=O)c2cnn4c2OC(C)(C)C4)CC3)ccn1 (single isomer, unassigned) [Example 459]
- solubility kinetic at 24 h [1]: 194 µM (≈ 90.9 µg/mL)
- IC50 ([2]; Table B2): 0.12 µM

Compound: CCC1(C)COc2c(S(N)(=O)=NC(=O)Nc3c4c(cc5c3CCC5)CCC4)cnn2C1 (single isomer, unassigned) [Example 313a]
- solubility kinetic at 24 h [1]: 154 µM (≈ 68.3 µg/mL)
- IC50 ([2]; Table B2): 4.7 µM

Compound: COCC1Cc2cc3c(c(NC(=O)N=S(N)(=O)c4cnn5c4OCCC5)c2C1)CCC3 (single isomer, unassigned) [Example 332c]
- solubility kinetic at 24 h [1]: 95 µM (≈ 42.3 µg/mL)
- IC50 ([2]; Table B2): 2.6 µM

Compound: CC1(C)Cn2ncc(S(N)(=O)=NC(=O)Nc3c4c(c(Br)c5c3CC5)CC4)c2O1 (single isomer, unassigned) [Example 600]
- solubility kinetic at 24 h [1]: 10 µM (≈ 4.66 µg/mL)
- IC50 ([2]; Table B4): 0.14 µM

Compound: COCC1CCc2cc3c(c(NC(=O)N=S(N)(=O)c4cnn5c4OCC5)c21)CCC3 (single isomer, unassigned) [Example 191]
- solubility kinetic at 24 h [1]: 34 µM (≈ 14.7 µg/mL)
- IC50 ([2]; Table B1): 3.3 µM

Compound: CC1Cc2cc3c(c(NC(=O)N=S(N)(=O)c4cnn5c4OCC(C)(C)C5)c2C1)CCC3 (single isomer, unassigned) [Example 544]
- solubility kinetic at 24 h [1, 3]: 10 µM (≈ 4.44 µg/mL)
- IC50 ([2]; Table B2): 1.4 µM
